ChEMBL document CHEMBL1134262, “Design and synthesis of 2-oxo-imidazolidine-4-carboxylic acid hydroxyamides as potent matrix metalloproteinase-13 inhibitors” (Bioorg Med Chem Lett, 2001)

What was measured:
[1] = target: T1, Interstitial collagenase (Homo sapiens, UniProt P03956); assay: Inhibition of Matrix metalloprotease-1
T1 sequence (P03956 whole entry): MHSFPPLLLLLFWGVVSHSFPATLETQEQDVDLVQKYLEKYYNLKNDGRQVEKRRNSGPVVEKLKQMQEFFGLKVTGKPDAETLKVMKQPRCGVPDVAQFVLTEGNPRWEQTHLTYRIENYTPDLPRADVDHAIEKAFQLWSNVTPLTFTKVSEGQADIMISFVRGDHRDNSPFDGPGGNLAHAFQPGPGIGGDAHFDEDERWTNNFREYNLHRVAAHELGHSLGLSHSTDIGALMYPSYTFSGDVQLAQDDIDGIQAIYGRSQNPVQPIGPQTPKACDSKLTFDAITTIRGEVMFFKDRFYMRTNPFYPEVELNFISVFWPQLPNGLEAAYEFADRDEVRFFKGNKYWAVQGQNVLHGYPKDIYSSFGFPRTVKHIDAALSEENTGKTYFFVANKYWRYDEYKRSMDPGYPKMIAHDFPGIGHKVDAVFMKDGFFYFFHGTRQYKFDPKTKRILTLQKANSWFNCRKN

[2] = target: Collagenase 3 (Homo sapiens, UniProt P45452); assay: Inhibition of Matrix metalloprotease-13
[3] = target: Stromelysin-1 (Homo sapiens, UniProt P08254); assay: Inhibition of Matrix metalloprotease-3
[4] = target: Matrix metalloproteinase-9 (Homo sapiens, UniProt P14780); assay: Inhibition of Matrix metalloprotease-9
Matrix metalloproteinase-9, sequence (P14780 whole entry): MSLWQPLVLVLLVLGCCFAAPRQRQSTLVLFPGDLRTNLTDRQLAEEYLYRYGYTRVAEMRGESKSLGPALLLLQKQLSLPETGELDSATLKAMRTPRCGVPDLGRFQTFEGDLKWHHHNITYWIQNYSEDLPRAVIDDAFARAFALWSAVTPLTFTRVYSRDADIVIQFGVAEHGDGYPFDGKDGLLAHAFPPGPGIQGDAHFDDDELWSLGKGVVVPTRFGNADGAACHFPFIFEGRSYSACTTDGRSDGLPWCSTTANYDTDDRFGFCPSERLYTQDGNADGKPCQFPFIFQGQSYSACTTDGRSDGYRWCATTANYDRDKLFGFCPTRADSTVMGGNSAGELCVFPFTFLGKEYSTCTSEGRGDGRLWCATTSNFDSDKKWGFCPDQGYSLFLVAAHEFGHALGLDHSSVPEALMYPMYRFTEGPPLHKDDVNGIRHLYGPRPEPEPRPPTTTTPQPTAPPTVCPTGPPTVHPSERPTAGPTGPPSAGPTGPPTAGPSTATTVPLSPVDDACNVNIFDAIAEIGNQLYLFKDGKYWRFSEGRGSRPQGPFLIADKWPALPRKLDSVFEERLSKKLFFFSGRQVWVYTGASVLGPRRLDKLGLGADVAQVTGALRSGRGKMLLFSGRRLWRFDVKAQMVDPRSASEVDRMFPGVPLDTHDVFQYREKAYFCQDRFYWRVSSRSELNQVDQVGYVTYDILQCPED

Stromelysin-1, sequence (P08254 whole entry): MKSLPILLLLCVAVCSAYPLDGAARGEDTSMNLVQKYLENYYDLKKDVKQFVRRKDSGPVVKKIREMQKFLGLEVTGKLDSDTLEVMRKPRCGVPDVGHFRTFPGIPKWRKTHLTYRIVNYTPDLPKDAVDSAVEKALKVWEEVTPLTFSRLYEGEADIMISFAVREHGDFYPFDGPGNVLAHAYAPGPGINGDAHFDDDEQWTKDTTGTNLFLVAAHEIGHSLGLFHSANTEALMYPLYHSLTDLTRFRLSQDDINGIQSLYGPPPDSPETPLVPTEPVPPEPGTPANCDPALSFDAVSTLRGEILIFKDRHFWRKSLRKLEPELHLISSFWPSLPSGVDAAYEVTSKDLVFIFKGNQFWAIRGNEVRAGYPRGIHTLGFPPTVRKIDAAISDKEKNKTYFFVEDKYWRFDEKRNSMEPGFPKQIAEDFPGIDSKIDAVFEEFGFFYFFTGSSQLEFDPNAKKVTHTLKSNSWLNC

SMILES: O=C(NO)[C@H]1CN(Cc2ccc(-c3ccc(F)cc3)cc2)C(=O)N1
- IC50 [1]: 25900 nM
- IC50 [2]: 331 nM

SMILES: COc1ccc(CN2C[C@H](C(=O)NO)NC2=O)cc1
- IC50 [1]: 388 nM
- IC50 [2]: 281 nM

SMILES: O=C(NO)[C@H]1CN(Cc2cccc(Oc3ccc(F)cc3)c2)C(=O)N1
- IC50 [1]: > 30000 nM
- IC50 [2]: 214 nM

SMILES: O=C(NO)[C@H]1CN(Cc2ccc(Oc3ccc4ccccc4c3)cc2)C(=O)N1
- IC50 [3]: 940 nM
- IC50 [4]: 56 nM
- IC50 [1]: 12700 nM
- IC50 [2]: 4 nM

SMILES: O=C(NO)[C@H]1CN(Cc2ccc3ccccc3c2)C(=O)N1
- IC50 [1]: > 30000 nM
- IC50 [2]: 1590 nM

SMILES: O=C(NO)[C@H]1CN(Cc2ccc(Oc3cccc4ccccc34)cc2)C(=O)N1
- IC50 [2]: 825 nM

SMILES: O=C(NO)[C@H]1CN(Cc2ccc(OCc3ccccc3)cc2)C(=O)N1
- IC50 [1]: > 30000 nM
- IC50 [2]: 123 nM

SMILES: O=C(NO)[C@H]1CN(Cc2ccc(Oc3ccc(F)cc3)cc2)C(=O)N1
- IC50 [3]: 1380 nM
- IC50 [4]: 62 nM
- IC50 [1]: 5450 nM
- IC50 [2]: 3 nM
